Patent US12410161B2, “Tetrahydrobenzo-quinoline sulfonamides derivative compounds” (UCB Biopharma SRL, priority 2019, dated 2025)

Columns and labels:
[1] = target: T1, IgE-Tb binding to sFcεR1α-Y131A-AF488 (Homo sapiens, UniProt P01854, N146Q/N252Q); test: In vitro FRET assay of IgE-Tb binding to sFcεR1α receptor (protocol for examples 9 and 10, 18 hours incubation); conditions: examples 9 and 10: compound incubated 30 minutes with IgE-Tb before sFcεR1α-Y131A-AF488; incubated 18 hours at room temperature; read-out: FRET IC50 range
T1 construct: fused on or other part: LanthaScreen amine-reactive terbium chelate label on IgE-Fc (about 4 Tb per IgE-Fc)
Experimental: In vitro Biochemical Assay:
Protocol for preparation of IgE-Tb reagent
86 nmoles of IgE-Fc(N265Q, N371Q) (Young et al., 1995) at 172 μM in 100 mM NaHCO3, pH 9.5 was added to 1 mg of LanthaScreen™ Amine Reactive Tb Chelate (ThermoFisher catalogue number PV3583) and incubated for 16 hours at 20° C. The material was then buffer exchanged into Phosphate Buffered Saline (being, 137 mM NaCl, 2.7 mM KCl, 10 mM Na2HPO4, 1.8 mM K2HPO4, pH 7.4) and the material quantified and the degree of Tb conjugation determined by measuring the absorption at 280 nm and 343 nm.
(§1) The integrity of the conjugated material was determined by analytical size exclusion chromatography on a 5200 HR 10×300 column (GE Healthcare). […]
175 nmoles of protein was added to 1 mg of Alexa Fluor™ 488 hydrazide (Invitrogen) and incubated for 16 hours at 22° C. […] The protein was buffer exchanged into Phosphate Buffered Saline (being, 137 mM NaCl, 2.7 mM KCl, 10 mM Na2HPO4, 1.8 mM K2HPO4, pH 7.4) and the material quantified and the degree of Alexa Fluor™ 488 conjugation determined by measuring the absorption at 280 nm and 495 nm.
as §1
The aim was to measure binding of IgE-Tb to receptor, and the inhibition thereof by compounds, using an in vitro Fluorescence Resonance Energy Transfer (FRET) Assay. […]

[2] = target: T2, IgE-Tb binding to soluble IgE receptor FcεRIα-Y131A-AF488 (Homo sapiens, UniProt P0DOX4, N265Q/N371Q); test: In vitro FRET assay of IgE-Tb binding to FcεRIα receptor (protocol for most examples, 2 hours incubation); conditions: 5 nM IgE-Tb, 25 nM FcεRIα-Y131A-AF488; incubated 2 hours at room temperature; read-out: FRET IC50 range
T2 construct: 86 nmoles of IgE-Fc(N265Q, N371Q) (Young et al., 1995)
Experimental: In vitro Biochemical Assay: Protocol for preparation of IgE-Tb reagent 86 nmoles of […]) (Young et al., 1995) at 172 μM in 100 mM NaHCO3, pH 9.5 was added to 1 mg of LanthaScreenTM Amine Reactive Tb Chelate (ThermoFisher catalogue number PV3583) and incubated for 16 hours at 20° C. The material was then buffer exchanged into Phosphate Buffered Saline (being, 137 mM NaCl, 2.7 mM KCl, 10 mM Na2HPO4, 1.8 mM K2HPO4, pH 7.4) and the material quantified and the degree of Tb conjugation determined by measuring the absorption at 280 nm and 343 nm. The integrity of the conjugated material was determined by analytical size exclusion chromatography on a 5200 HR 10×300 column (GE Healthcare). Typical conjugation ratios were 4:1 Tb:IgE-Fc. • Young R J., Owens, […]., Chan C M W., Shi J., Hide […]., Henry A J., Sutton B J., and Gould H J (1995) Protein Engineering 8:193-199 Protocol for preparation of […] reagent […] Oxidation was quenched with the addition of 40 μl of ethanediol and incubation for 60 minutes at 22° C. The protein was buffer exchanged in to conjugation buffer (50 mM NaHCO3, 150 mM NaCl, pH 9.5) and concentrated to 750 μM. 175 nmoles of protein was added to 1 mg of Alexa FluorTM 488 hydrazide (Invitrogen) and incubated for 16 hours at 22° C. […] The protein was buffer exchanged into Phosphate Buffered Saline (being, 137 mM NaCl, 2.7 mM KCl, 10 mM Na2HPO4, 1.8 mM K2HPO4, pH 7.4) and the material quantified and the degree of Alexa FluorTM 488 conjugation determined by measuring the absorption at 280 nm and 495 nm. The integrity of the conjugated material was determined by analytical size exclusion chromatography on a 5200 HR 10×300 column (GE Healthcare). Typical conjugation ratios were 2:1 Alexa FluorTM488: sFcεR1α • Cook J P D., Henry […]., Owens R J., Sutton B J., and Gould H J (1997) Biochemistry 36:15579-15588 The aim was to measure binding of IgE-Tb to receptor, and the inhibition thereof by compounds, using an in vitro Fluorescence Resonance Energy Transfer (FRET) Assay. Reagents FRET reagents used were IgE labelled with Terbium (FRET donor), and soluble IgE receptor FcεRIα with a Y131A mutation, labelled with Alexa FluorTM 488 (FRET acceptor). Unlabelled FcεRIα was also used to generate a background control. The assay buffer consisted of 20 mM Tris pH7.2, 150 mM NaCl, and 0.002% Tween, 1% DMSO. Assay Reaction For most of the examples the assay was conducted according to the following: Each assay reaction was conducted in a volume of 25 μl in a 384-well half-volume plate. 10 point compound serial dilutions (3-fold) were generated in DMSO at a concentration of ×50 that of the final assay concentration (FAC). Compound solutions were then prepared by IgE-Tb diluting 10-fold in assay buffer. For the assay, 5 μl of diluted compound was added to 10 μl of IgE-Tb, followed by addition of 10111 FcεRIα-Y131A-AF488. FRET reagents FACs were 5 nM IgE-Tb, 25 nM FcεRIα-Y131A-AF488. Usually the top FAC of compound in the assay was 10 μM. The final DMSO concentration was 2%. The minimum signal (MIN) was measured by adding 5 μl unlabelled FcεRIα at 1 μM (FAC=200 nM) to the FRET reagents. The maximum FRET signal (MAX) was measured in wells containing FRET reagents but no compound. The assay was incubated for 2 hours at room temperature, protected from light and evaporation, and with gentle agitation. FRET Measurement Measurement of FRET for each well was carried out by exciting at 330 nm and measuring emission at 495/520 nm using an Envision plate reader (Perkin Elmer). FRET ratio was calculated as follows: Emission at 520/Emission at 495×1000. The FRET ratio was used for the data analysis. Data Analysis Z' was calculated as follows (σ=standard deviation and μ=mean): 1-((3×σMAX)+(3×σMIN))/(μMAX-/μMIN) Z' above 0.5 was considered a good assay. Background signal (MIN) was subtracted from all wells. Using the background subtracted values, the percent inhibition by compound in each test-well was calculated as follows: 100-Test-well FRET ratio/MAX FRET ratio×100. […]

T1 sequence (P01854 whole entry N146Q/N252Q, the tested form may be a part): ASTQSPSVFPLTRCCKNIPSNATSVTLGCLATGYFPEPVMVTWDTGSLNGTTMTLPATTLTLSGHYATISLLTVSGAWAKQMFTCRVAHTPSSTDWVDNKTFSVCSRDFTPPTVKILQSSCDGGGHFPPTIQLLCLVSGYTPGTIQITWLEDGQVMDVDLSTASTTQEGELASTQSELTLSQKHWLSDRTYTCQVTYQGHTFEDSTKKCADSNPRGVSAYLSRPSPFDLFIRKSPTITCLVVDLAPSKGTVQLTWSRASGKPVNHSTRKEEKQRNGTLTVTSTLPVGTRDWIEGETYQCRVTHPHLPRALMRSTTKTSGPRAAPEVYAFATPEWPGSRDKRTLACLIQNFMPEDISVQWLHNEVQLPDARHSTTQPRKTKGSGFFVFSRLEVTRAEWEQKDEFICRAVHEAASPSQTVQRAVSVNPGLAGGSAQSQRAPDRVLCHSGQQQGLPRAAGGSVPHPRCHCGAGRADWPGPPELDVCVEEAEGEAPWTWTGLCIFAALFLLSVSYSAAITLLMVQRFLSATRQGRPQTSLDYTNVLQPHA
T2 sequence (P0DOX4 224-547 N265Q/N371Q limits assumed): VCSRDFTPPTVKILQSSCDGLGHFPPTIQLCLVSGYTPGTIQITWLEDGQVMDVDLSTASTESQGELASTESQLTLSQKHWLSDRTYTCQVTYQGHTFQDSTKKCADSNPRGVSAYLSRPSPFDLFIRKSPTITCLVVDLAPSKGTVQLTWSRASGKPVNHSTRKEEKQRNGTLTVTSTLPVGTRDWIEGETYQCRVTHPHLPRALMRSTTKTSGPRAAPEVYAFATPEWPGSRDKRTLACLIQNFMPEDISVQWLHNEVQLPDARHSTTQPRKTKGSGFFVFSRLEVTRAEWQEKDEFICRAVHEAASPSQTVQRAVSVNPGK

| SMILES | IC50 [1] [nM] | IC50 [2] [nM] |
| --- | --- | --- |
| CC(C)CNS(=O)(=O)c1c2c(cc3oc(C4CC4)nc13)CCC(n1cnnc1Nc1cc(C(F)F)nn1C)C2 (stereo not drawn) [Example 9, 2-cyclopropyl-6-[3-[[5-(difluoromethyl)-2-methylpyrazol-3-yl]amino]-1,2,4-triazol-4-yl]-N-(2-methylpropyl)-5,6,7,8-tetrahydrobenzo[f][1,3]benzoxazole-4-sulfonamide] | 50 to 100 |  |
| CC(C)CNS(=O)(=O)c1c2c(cc3c1NC(C1CC1)=NO3)CCCC2 [Example 10, 3-cyclopropyl-N-isobutyl-6,7,8,9-tetrahydro-4H-benzo[g][1,2,4]benzoxadiazine-5-sulfonamide] | 50 to 100 |  |
| Cc1cc(Nc2nncn2C2CCc3cc4cnc(C5CC5)cc4c(S(=O)(=O)NCC(C)C)c3C2)n(C)n1 (stereo not drawn) [Example 13, 3-cyclopropyl-7-[3-[(2,5-dimethylpyrazol-3-yl)amino]-1,2,4-triazol-4-yl]-N-(2-methylpropyl)-6,7,8,9-tetrahydrobenzo[g]isoquinoline-5-sulfonamide] |  | 1 to 50 |
